Here are results for two compounds from publication PMC7551886, “Antitumour Effects of Astaxanthin and Adonixanthin on Glioblastoma” (Marine Drugs, 2020).

Bounds are passed on as bounds.

The conditions of series [1]: ICR, mouse, in vivo, po. How it is done:
In the experiment of the murine orthotopic glioblastoma model, oral administration of each astaxanthin (10 and 30 mg/kg) and adonixanthin (10 and 30 mg/kg) was initiated 3 days after intracranial injection of GL261 cells and was continued for 10 days. In the experiment of the brain tissue absorption with oral astaxanthin or adonixanthin, after one week of adaptation, ICR mice were randomly divided into the following three groups: control group, astaxanthin group (50 mg/kg), and adonixanthin group (50 mg/kg). Mice were orally administered each reagent suspended in olive oil (5 mL/kg) by the daily single dose for 10 days. The control group was treated by olive oil alone (5 mL/kg).
In mice, blood samples were collected under anaesthesia by using sodium pentobarbital (50 mg/kg, 10 mL/kg, i.p). To separate serum and from blood, we centrifuged at 1700 g for 10 min. […]
Carotenoid fraction was collected from blood and some tissues by silica gel HPLC using a Cosmosil 5SL-II column with acetone:hexane (2:8, v/v) for the mobile phase at a flow rate of 1.0 mL/min as described above. […] Identification of each carotenoid was performed by authentic carotenoids obtained from Paracoccus (ENEOS Corporation, Tokyo, Japan) by our routine methods and the content of each carotenoid was calculated from peak areas by comparison with the authentic samples.

A further series concerns ERK1/2. The series is described as follows: Immunoblotting, phosphorylation of ERK1/2 in GL261. It is filed as cell-based, mouse. The conditions noted are these: GL261, 10 µM, 6 h post-treatment. The procedure: (§1) GL261 cell was seeded at 2.5 × 10^4 cells per well in 24-well plates with culture medium supplemented with 10% FBS. After 24 h of incubation, the medium was changed to DMEM containing 10% FBS and 0.1%DMSO PBS, 300 μM temozolomide, 10 μM astaxanthin, or 10 μM adonixanthin was added for 6 and 48 h. Cells were lysed in a special buffer (RIPA buffer R0278; Sigma-Aldrich, St. Louis, MO, USA) with a protease inhibitor cocktail (Sigma-Aldrich), phosphatase inhibitor cocktails 2 and 3 (Sigma-Aldrich), and sample buffer (Wako, Osaka, Japan). The protein concentration was determined by comparison with a known concentration of bovine serum albumin using the BCA Protein Assay Kit (Thermo Fisher Scientific). The amount of total protein was 2 μg. […] The band intensity was […] using an Immuno Star LD (Wako). Band intensity was measured using an LAS-4000 UV mini Luminescent Image Analyzer (Fujifilm, Tokyo Japan) and Multi Gauge Version 3.0 (Fujifilm). The phosphorylation of ERK1/2, Akt, and p38 MAPK was measured by normalizing against total ERK1/2, total Akt, and total p38 MAPK. […]
In general terms: A western blot detects proteins with antibodies after separation by electrophoresis.

In a further series the test system is NADPH oxidase 4 (Nox4). The series can be described thus: Immunoblotting, Nox4 expression in GL261. It is filed as cell-based, mouse. The conditions noted are these: GL261, 10 µM, 6 h. How it is done: as §1
Series [2] has as its system GL261 cells. The series can be described thus: Wound healing (cell migration) assay in GL261. The conditions noted are these: GL261, 10 µM, 48 h. The class given is cell-based, mouse. How it is done:
The cell migration assay was conducted as previously described. GL261 cells and U251 cells (2.0 × 10^4 cells per well) were plated in a 12-well plate (BD Biosciences, Tokyo, Japan) with culture medium supplemented with 10% FBS. After 24 h of incubation, the medium was changed to DMEM containing 1% FBS. After 6 h, wounds were scratched by a P1000 pipette tip and washed with phosphate-buffered saline (PBS) to eliminate cell debris. Then, fresh medium was added with 10 µM astaxanthin or adonixanthin. Pictures were taken at 48 h and these scratched areas were measured using an All-in-One Fluorescence Microscope (BZ-X710; Keyence, Osaka, Japan). The cell migration rate was measured the area of the wound before migration (S0) and after migration (S1) and calculated […]. The control group was then standardized to be 100%. Wound widths at 0 h were created within 1 to 1.5 mm and data were excluded if they were not suitable for that width.

Series [3] concerns GL261 cells. The series is described as follows: Cell viability (CCK-8 assay) in GL261. The conditions noted are these: GL261, treated for 96 h. The class given is cell-based, mouse. The procedure: U251MG, GL261, or U87MG cells were seeded onto 96-well plates at a density of 2 × 10^3 cells/well with DMEM supplemented with 10% FBS and then incubated for 24 h, after which the culture medium was changed to DMEM containing 10% FBS. Then, astaxanthin, adonixanthin or temozolomide (Tokyo Chemical Industry Co., Ltd., Tokyo, Japan) were added to the culture. Cell proliferation was determined using the CCK-8 assay according to the manufacturer’s instructions (Dojindo, Kumamoto, Japan). After each incubation, 10 μL of CCK-8 solution were added to each well. Plates were incubated for 3 h for 37 °C, and the absorbance was read at 450 nm with a reference wavelength of 630 nm using a Varioscan Flash 2.4 microplate reader (Thermo Fisher Scientific, Waltham, MA, USA).

In the next series the test system is p27. The series can be described thus: Immunoblotting, p27 expression in GL261. It is filed as cell-based, mouse. The conditions noted are these: GL261, 10 µM, 48 h. The procedure:
as §1, with “μg. Equal amounts of protein in sample buffer containing 10% 2-mercaptoethanol were subjected to sodium dodecyl sulphate polyacrylamide gel electrophoresis (SDS-PAGE) in 5-20% gradient gels (SuperSep Ace; Wako), and the separated proteins were transferred to polyvinylidene difluoride membrane (Immobilon-P; Merck Millipore Corporation, Bedford, MA, USA). After blocking for 30 min with Blocking One-P (Nacalai Tesque), we incubated the membranes with primary antibodies overnight at 4 °C.” for “μg.”

Series [4] deals with p38 mitogen-activated protein kinase. The series can be described thus: Immunoblotting, phosphorylation of p38 MAPK in GL261. The conditions noted are these: GL261, 10 µM, 48 h. It is filed as cell-based, mouse. How it is done:
as §1

For `CC1=C(/C=C/C(C)=C/C=C/C(C)=C/C=C/C=C(C)/C=C/C=C(C)/C=C/C2=C(C)C(=O)[C@@H](O)CC2(C)C)C(C)(C)C[C@H](O)C1` [Adonixanthin, adonixanthin], the “concentration detected in the brain” value in series [1] is reported as approximately 10 nM. The “phosphorylation of ERK1/2” value in the series on ERK1/2 was “decreased”. Also, in the series on NADPH oxidase 4 (Nox4), the “expression of Nox4” value is “significantly decreased”. Also, the “suppression of cell migration” value in the series with GL261 cells [2] worked out at 13.74 ± 4.01%. The “concentration above which cell viability was suppressed” value in the series on GL261 cells [3] is more than 0.1 µM. The “expression of p27” value in the series with p27 is given as “increased”. The “phosphorylation of p38 MAPK” value in series [4] is on record as “increased”.

`CC1=C(/C=C/C(C)=C/C=C/C(C)=C/C=C/C=C(C)/C=C/C=C(C)/C=C/C2=C(C)C(=O)[C@@H](O)CC2(C)C)C(C)(C)C[C@H](O)C1=O` [Astaxanthin, astaxanthin]: the “concentration detected in the brain” value in series [1] is “approximately 30 nM”. Moreover, the “phosphorylation of ERK1/2” value in the series with ERK1/2 was “decreased”. Besides, in the series on NADPH oxidase 4 (Nox4), the “expression of Nox4” value was “no change”. In addition, the “suppression of cell migration” value with GL261 cells [2] worked out at 8.84 ± 2.09%. Also, in the series with GL261 cells [3], the “concentration above which cell viability was suppressed” value was “more than 5 µM”. For the same compound, in the series on p27, the “expression of p27” value was “increased”. Also, the “phosphorylation of p38 MAPK” value in series [4] is on record as “increased”.
